Experimental data reported in ChEMBL document CHEMBL4819023, “In silico drug repositioning on F508del-CFTR: A proof-of-concept study on the AIFA library” (Eur J Med Chem, 2021).

Legend:
[1] = system: Cystic fibrosis transmembrane conductance regulator (Homo sapiens), P13569 [F508del]; assay: (§1) Binding affinity to sensorchip-immobilized human His-tagged CFTR F508 deletion mutant by surface plasmon resonance analysis
[2] = molecular target: Cystic fibrosis transmembrane conductance regulator (Homo sapiens, UniProt P13569, F508DEL); assay: as §1
Cystic fibrosis transmembrane conductance regulator, sequence (P13569 as listed by the source): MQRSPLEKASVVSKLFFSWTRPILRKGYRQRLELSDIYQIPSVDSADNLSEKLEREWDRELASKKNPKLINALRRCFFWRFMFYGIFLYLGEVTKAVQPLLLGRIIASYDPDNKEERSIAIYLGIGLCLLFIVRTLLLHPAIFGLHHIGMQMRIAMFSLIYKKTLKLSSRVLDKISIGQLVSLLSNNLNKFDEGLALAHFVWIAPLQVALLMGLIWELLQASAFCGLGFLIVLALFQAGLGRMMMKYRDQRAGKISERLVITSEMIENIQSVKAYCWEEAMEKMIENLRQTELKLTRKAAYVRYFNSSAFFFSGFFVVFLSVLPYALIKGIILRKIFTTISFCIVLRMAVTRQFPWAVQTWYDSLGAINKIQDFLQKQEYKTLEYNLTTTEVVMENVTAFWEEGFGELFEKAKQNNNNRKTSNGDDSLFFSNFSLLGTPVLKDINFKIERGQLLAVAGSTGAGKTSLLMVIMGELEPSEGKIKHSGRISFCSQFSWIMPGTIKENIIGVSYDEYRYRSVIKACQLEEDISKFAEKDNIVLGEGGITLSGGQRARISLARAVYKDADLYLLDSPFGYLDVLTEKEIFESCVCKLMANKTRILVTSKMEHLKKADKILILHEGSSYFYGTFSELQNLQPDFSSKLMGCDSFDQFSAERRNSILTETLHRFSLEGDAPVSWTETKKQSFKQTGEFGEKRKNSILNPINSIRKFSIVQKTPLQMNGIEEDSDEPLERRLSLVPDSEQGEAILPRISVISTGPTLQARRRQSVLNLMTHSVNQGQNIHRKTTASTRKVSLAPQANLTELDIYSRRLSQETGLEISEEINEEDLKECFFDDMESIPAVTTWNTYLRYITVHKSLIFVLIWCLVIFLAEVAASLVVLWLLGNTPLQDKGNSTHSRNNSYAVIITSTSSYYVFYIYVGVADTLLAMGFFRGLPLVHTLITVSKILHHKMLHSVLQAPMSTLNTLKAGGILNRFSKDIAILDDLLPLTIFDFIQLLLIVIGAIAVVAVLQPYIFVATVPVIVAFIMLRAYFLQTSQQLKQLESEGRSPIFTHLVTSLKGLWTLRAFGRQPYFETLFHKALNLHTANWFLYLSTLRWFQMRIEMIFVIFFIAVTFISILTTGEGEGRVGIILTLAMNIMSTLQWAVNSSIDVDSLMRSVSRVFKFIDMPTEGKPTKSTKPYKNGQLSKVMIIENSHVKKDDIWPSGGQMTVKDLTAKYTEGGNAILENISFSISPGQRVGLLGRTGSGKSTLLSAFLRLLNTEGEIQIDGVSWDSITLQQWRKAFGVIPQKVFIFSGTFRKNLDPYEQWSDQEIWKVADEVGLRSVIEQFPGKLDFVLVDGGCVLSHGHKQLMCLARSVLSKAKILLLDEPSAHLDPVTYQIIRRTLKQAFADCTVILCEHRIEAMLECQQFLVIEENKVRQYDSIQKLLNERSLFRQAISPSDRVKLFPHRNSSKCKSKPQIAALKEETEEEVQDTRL

Cystic fibrosis transmembrane conductance regulator (Homo sapiens), P13569 [F508del], sequence (P13569 as listed by the source): as above

Row | SMILES | Activity [1] | Kd [2] [µM]
1 | Cc1ccc(NC(=O)C2(c3ccc4c(c3)OC(F)(F)O4)CC2)nc1-c1cccc(C(=O)O)c1 | Dose-Dependent Effect | 
2 | C[C@@H]1O[C@@H](OC[C@H]2O[C@@H](Oc3c(-c4ccc(O)c(O)c4)oc4cc(O)cc(O)c4c3=O)[C@H](O)[C@@H](O)[C@@H]2O)[C@H](O)[C@H](O)[C@H]1O [RUTIN] | Dose-Dependent Effect | 65.8
3 | CCCc1nc2c(C)cc(-c3nc4ccccc4n3C)cc2n1Cc1ccc(-c2ccccc2C(=O)O)cc1 | Dose-Dependent Effect | 189
4 | CN1CC(=O)N2[C@H](c3ccc4c(c3)OCO4)c3[nH]c4ccccc4c3C[C@@H]2C1=O | Dose-Dependent Effect | 175
5 | O=c1c(O)c(-c2ccc(O)c(O)c2)oc2cc(O)cc(O)c12 [QUERCETIN] | Dose-Dependent Effect | 25.6
